Test results reported in patent US9289405B2, “Compounds provided with antioxidant activity against free radicals, and pharmaceutical and cosmetic compositions containing them” (GIULIANI S.P.A, priority 2010, dated 2016).
Structures can show the parent of a compound that is named as a salt.

Assays:
NCTC 2544 cells = test: Lipid lipoperoxidation induced by TBT, malondialdehyde content via thiobarbituric acid; type: cell-based, human; conditions: 24 hours pre-treatment at maximum tolerated concentration, then TBT 2.5 μM for 24 hours, FIG. 2
Protocol: (§1) Two cellular systems were used: NCTC 2544, a line of human keratinocytes, and THP-1, a human promyelocytic line. The results were expressed as mean±standard deviation. Each experiment was repeated at least twice.
Lipid peroxidation was evaluated on the NCTC 2544 cells by measuring the content of malondialdehyde, one of the main by-products of lipid peroxidation, through its reactivity with thiobarbituric acid. The results are expressed as absorbance/mg protein. The protein content was evaluated by the Bradford method.
The NCTC cells were treated for 24 hours in the presence or in the absence of the maximum tolerated concentration of said compounds 1, 2, 3, and then stimulated with TBT 1-2.5 μM for a further 24 hours.
Trolox 100 μM was used as positive control.

THP-1 cells = test: Modulation of the production of ROS induced by LPS, cytofluorometry with DCFH; type: cell-based, human; conditions: 1 hour treatment, serum-free medium, LPS 0.1 μg/ml, compared with Trolox 100 μM, FIG. 1
Protocol: as §1
Tributyltin (TBT) and lipopolysaccharide (LPS) are used as […] inducers of radical species. The production of ROS was evaluated by cytofluorometry techniques for the THP-1 cell line, using DCFH as stain.
The optimum times and concentrations for cytofluorometric measurement of ROS were identified in preliminary experiments.
The vitamin E derivative 6-hydroxy-2,5,7,8-tetramethylchroman-2-carboxylic acid (Trolox), at a concentration of 100 μM, was used as positive control.
The THP-1 cells were treated for 1 hour with compounds 1 and 2 of the invention at a concentration of 100 μg/ml, with compound 3 at a concentration of 200 μg/ml and with Trolox 100 μM in serum-free medium, loaded in the last 30 minutes with DCFH (10 μM) and then treated in the presence or absence of LPS (0.1 μg/ml) and analysed in the cytofluorometer.

Structure (SMILES)	lipoperoxidation induced by TBT (malondialdehyde content) (NCTC 2544 cells)	production of ROS induced by LPS (THP-1 cells; compound at 100 μg/ml)	production of ROS induced by LPS (THP-1 cells; compound at 200 μg/ml)
C/C=C/C=C/C=C/C(=O)O [compound 1, 2E,4E,6E-octatrienoic acid]	statistically significant (p<0.05) decrease of lipoperoxidation	nullifying the production of ROS induced by LPS 0.1 μg/ml to an extent not less than Trolox	
C/C=C/C=C/C=C/C(=O)[O-].[K+] [compound 2, potassium 2E,4E,6E-octatrienoate]	statistically significant (p<0.05) decrease of lipoperoxidation	nullifying the production of ROS induced by LPS 0.1 μg/ml to an extent not less than Trolox	
C/C=C/C=C/C=C/C(=O)O [compound 3, 2E,4E,6E-octatrienoic acid, L-lysine salt]			nullifying the production of ROS induced by LPS 0.1 μg/ml to an extent not less than Trolox
